Data from PubChem BioAssay (NCI).
Values joined by “and” are separate entries in the source; they are usually repeats but may differ in a detail not shown here. Equal entries are not always repeated.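 Compound exposure: 48 hours, 5 concentrations, 96-well plates. GI50: concentration for 50% inhibition of growth. Definition used: TGI = concentration required for complete inhibition of growth.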

Key:
Experiment in all cases: NCI tumour cell line growth inhibition, 48 h
[1] = test system: NCI-H460 lung
[2] = test system: HCT-116 colon
[3] = test system: SF-295 CNS
[4] = test system: MOLT-4 leukemia
[5] = test system: SK-MEL-28 melanoma
[6] = test system: HL-60(TB) leukemia
[7] = test system: HCT-15 colon
[8] = test system: OVCAR-8 ovarian
[9] = test system: SN12C renal
[10] = test system: SK-OV-3 ovarian

| SMILES | TGI [1] | TGI [2] | TGI [3] | TGI [4] | TGI [5] | TGI [6] | TGI [7] | TGI [8] | TGI [9] | TGI [10] | GI50 [1] | GI50 [2] | GI50 [3] | GI50 [4] | GI50 [5] | GI50 [6] | GI50 [7] | GI50 [8] | GI50 [9] | GI50 [10] |
| --- | --- | --- | --- | --- | --- | --- | --- | --- | --- | --- | --- | --- | --- | --- | --- | --- | --- | --- | --- | --- |
| Cn1c(=O)nc2n(-c3ccc(Cl)cc3)c3cc(Cl)ccc3nc-2c1=O | 27.1 µM | 10 µM | 23.7 µM | 16.5 µM | 7.19 µM | 5.66 µM | 3.69 µM | 6.2 µM | 13.9 µM | 34.6 µM | – | – | – | – | – | – | – | – | – | – |
| OCC[N+]12CCCN1CCC2 | > 100 µM | > 100 µM | > 100 µM | > 100 µM | > 100 µM | > 100 µM | > 100 µM | > 100 µM | > 100 µM | > 100 µM | – | – | – | – | – | – | – | – | – | – |
| Cn1c2c(c3ccccc31)CCN(CCCCN1CCN(c3ccccc3)CC1)C2=O | > 93.8 µM | > 100 µM | > 100 µM | > 78 µM | > 61.8 µM | > 81.3 µM | > 100 µM | > 56.2 µM | > 91.4 µM | > 100 µM | – | – | – | – | – | – | – | – | – | – |
| C=CC(=O)N1C[C@@H]2CCOc3c(Cl)c(-c4c(O)cccc4F)c(F)c4ncnc(c34)N2C[C@H]1C | 32.1 µM | 24.5 µM | 32.5 µM | > 100 µM | 27.1 µM | 33.1 µM | 26.6 µM | 56.6 µM | 31.3 µM | 42.7 µM | 15.2 µM | 11.2 µM | 15.6 µM | 5.79 µM | 13.5 µM | 4.81 µM | 11.8 µM | 16.5 µM | 13 µM | 17.3 µM |
| O=C(COc1cccc(/C=C2\CSc3ccc(Cl)cc3C2=O)c1)c1ccc(Cl)cc1 | > 100 µM | 2.83 µM | 18.7 µM | 4.46 µM | 30.4 µM | 6.87 µM | 3.9 µM | > 100 µM | 22.4 µM | 97.5 µM | 23.1 µM | 1.5 µM | 4.48 µM | 1.84 µM | 15.6 µM | 2.69 µM | 1.8 µM | 5.1 µM | 8.89 µM | 20.4 µM |
| CSc1nc2nn(Cc3ccccc3)cc2c(=O)[nH]1 | > 100 µM | > 100 µM | > 100 µM | > 100 µM | > 100 µM | > 100 µM | > 100 µM | > 100 µM | > 100 µM | > 100 µM | – | – | – | – | – | – | – | – | – | – |
| O=C1CC(c2ccccc2)Cc2nc3ccc(Br)cc3cc21 (centres undefined) | 13.7 µM | > 100 µM | 28.3 µM | > 100 µM | > 100 µM | 0.672 µM | > 100 µM | > 100 µM | > 100 µM | > 100 µM | 0.339 µM | 0.0509 µM | 0.265 µM | 0.0639 µM | 1.34 µM | 0.235 µM | 0.476 µM | 0.4 µM | 0.577 µM | 0.694 µM |
| CCC1C(C(=O)Nc2ccccc2C)=C(C)NC(C)=C1c1ccccc1C (centres undefined) | > 67.1 µM | > 77.6 µM | > 100 µM | > 100 µM | > 100 µM | 31.5 µM | > 54.8 µM | > 100 µM | > 100 µM | > 100 µM | – | – | – | – | – | – | – | – | – | – |
| COc1cc([N+](=O)[O-])c(OC)cc1-c1nc2sc(C)cn2c1/C(N)=N/C(=N)N | > 100 µM | > 100 µM | > 100 µM | > 100 µM | > 100 µM | > 100 µM | > 100 µM | > 100 µM | 49.1 µM | > 100 µM | 43.7 µM | > 100 µM | 16.6 µM | > 100 µM | 7.02 µM | > 100 µM | > 100 µM | 35.7 µM | 18.9 µM | > 100 µM |
| C#Cc1cccc(Nc2ncnc3ccc(OCCCCNCCS(C)(=O)=O)cc23)c1 | > 25 µM | > 18.7 µM | > 25 µM | 21.4 µM | 8.56 µM | 11.3 µM | > 25 µM | > 25 µM | > 25 µM | > 25 µM | 10.5 µM | 6.81 µM | 8.84 µM | 7.97 µM | 4.58 µM | 5.37 µM | 7.41 µM | 7.56 µM | 5.89 µM | 1.28 µM |
| COC1=C(C)C(=O)c2c(c(CCCl)c3n2CCC3OC(C)=O)C1=O (centres undefined) | 1.29 µM | > 22.8 µM | 0.864 µM | > 100 µM | 1.09 µM | 33.6 µM | 2.35 µM | 19.4 µM | 15.4 µM | 0.983 µM | 0.0389 µM | 0.791 µM | 0.153 µM | 4.11 µM | 0.31 µM | 2.43 µM | 0.155 µM | 0.897 µM | 0.391 µM | 0.279 µM |
| O=C(C=P(c1ccccc1)(c1ccccc1)c1ccccc1)CCl | 3.6 µM | 1.6 µM | 7.62 µM | 6.85 µM | 3.55 µM | 6.12 µM | 4.21 µM | 3.8 µM | 4.53 µM | 16.1 µM | 1.52 µM | 0.416 µM | 2.3 µM | 1.59 µM | 1.54 µM | 1.31 µM | 0.881 µM | 0.918 µM | 1.46 µM | 4.67 µM |
| C=CC(=O)NC(N)=NC#N | 360 µM | 329 µM | 843 µM | 555 µM | 261 µM | > 66.3 µM and 327 µM | 258 µM | 484 µM | 293 µM | 315 µM | – | – | – | 197 µM | – | 132 µM | – | – | – | – |
| CCN(CC)CC(C)C(=O)/C=C/c1ccc(C)cc1 (centres undefined) | 17 µM | 3.16 µM | 28.6 µM | 7.07 µM | 3.69 µM | 14.4 µM | 5.71 µM | 11.3 µM | 3.02 µM | 30.7 µM | – | – | – | – | – | – | – | – | – | – |
| Cc1ccc(C=C2C(Cl)=C(Cl)C(Cl)=C2Cl)cc1 | 3.88 µM | 1.04 µM | 3.93 µM | 0.493 µM | 2.64 µM | 1.53 µM | 4.88 µM | 9.45 µM | 3.02 µM | 4.62 µM | 1.66 µM | 0.358 µM | 1.55 µM | 0.186 µM | 1.25 µM | 0.363 µM | 1.33 µM | 0.418 µM | 0.832 µM | 2.03 µM |
| CC(C)[C@@](O)(c1ccc2cc(OC(F)F)c(OC(F)F)cc2c1)c1cn[nH]n1 | 37.4 µM | 32 µM | 29.7 µM | 70.7 µM | 33.9 µM | 66.6 µM | 37.4 µM | 53.6 µM | 35.2 µM | 38.1 µM | 18 µM | 17.2 µM | 14.2 µM | 21.7 µM | 17.1 µM | 21.9 µM | 15.3 µM | 21.9 µM | 17.1 µM | 16.2 µM |
| CN(C)CCCSc1ccccc1NC1=C(Cl)C(=O)C(Nc2ccccc2SCCCN(C)C)=C(Cl)C1=O | 16.3 µM | 2.93 µM | 3.82 µM | 2.68 µM | 3.12 µM | 2.91 µM | 3.32 µM | 3.99 µM | 3.18 µM | 25 µM | 4.49 µM | 1.52 µM | 1.96 µM | 0.41 µM | 1.67 µM | 0.69 µM | 1.69 µM | 2.03 µM | 1.72 µM | 12.5 µM |
| c1ccncc1 | > 100 µM | > 100 µM | > 100 µM | > 100 µM | > 100 µM | > 100 µM | > 100 µM | > 100 µM | > 100 µM | > 100 µM | – | – | – | – | – | – | – | – | – | – |
| COC(=O)[C@]12CC[C@@H](C)[C@H](C)[C@@H]1C1=CC[C@@H]3[C@@]4(C)C[C@@H](OC(=O)/C=C/c5ccccc5)[C@H](O)[C@@](C)(CO)[C@@H]4[C@H](O)C[C@@]3(C)[C@]1(C)CC2 | 4.7 µM | 3.79 µM | 5.75 µM | 7.31 µM | 9.36 µM | 6.51 µM | 4.02 µM | 11.5 µM | 3.6 µM | 14.3 µM | 2.12 µM | 1.95 µM | 2.27 µM | 2.27 µM | 2.69 µM | 2.63 µM | 1.93 µM | 3.2 µM | 1.83 µM | 3.91 µM |
| COc1ccc(C2CC(c3ccc(Nc4ccnc5cc(Cl)ccc45)cc3)=NN2C=O)cc1 (centres undefined) | > 100 µM | > 100 µM | > 100 µM | 16.7 µM | 90.9 µM | 5.16 µM | > 100 µM | > 100 µM | > 100 µM | > 100 µM | > 100 µM | 9.97 µM | 24.8 µM | 2.55 µM | 20.9 µM | 2.23 µM | 2.97 µM | 69.8 µM | 12.6 µM | > 100 µM |
| O=[N+]([O-])c1ccc(C(Cl)C(Cl)c2ccc(C(Cl)C(Cl)c3ccc([N+](=O)[O-])cc3[N+](=O)[O-])cc2)c([N+](=O)[O-])c1 (centres undefined) | 2.15 µM and 0.723 µM | 1.75 µM | 25.8 µM and 5.76 µM | > 62 µM | 12.3 µM and 1.96 µM | – | 3.3 µM and 0.55 µM | 2.13 µM and 0.918 µM | 5.41 µM and 1.25 µM | > 62 µM and 51.1 µM | 0.249 µM | – | 0.602 µM | – | 0.389 µM | 0.132 µM | 0.214 µM | 0.282 µM | 0.307 µM | 6.36 µM |
| N#CCC(=O)N/N=C1/C(=O)N(c2cc(Cl)ccc2Cl)C(=O)C(=O)C1c1nc2ccccc2s1 (centres undefined) | > 100 µM | > 100 µM | > 100 µM | > 100 µM | > 100 µM | > 100 µM | > 100 µM | > 100 µM | > 100 µM | > 100 µM | – | – | – | – | – | – | – | – | – | – |
| COc1ccc(C(=NN=C(N)N)c2ccc(OC)cc2)cc1 | 11 µM | 12.4 µM | 11.2 µM | 16.7 µM | 19.1 µM | 8.48 µM | 19.9 µM | 21.1 µM | 15.5 µM | 10.6 µM | 3.04 µM | 3.15 µM | 2.72 µM | 3.89 µM | 5.7 µM | 2.53 µM | 4.73 µM | 5.29 µM | 3.15 µM | 2.78 µM |
| CCOC(=O)C1=C(C)NC(=O)NC1CN1C(=O)c2ccccc2C1=O (centres undefined) | > 100 µM | > 100 µM | > 100 µM | > 100 µM | > 100 µM | > 100 µM | > 100 µM | > 100 µM | > 100 µM | > 100 µM | > 100 µM | > 100 µM | > 100 µM | > 100 µM | > 100 µM | > 100 µM | > 100 µM | > 100 µM | > 100 µM | > 100 µM |
